Test results: patent US9266890B2, “Pyrimido-diazepinone kinase scaffold compounds and methods of treating disorders” (Dana-Farber Cancer Institute, Inc., priority 2009, dated 2016)

Legend:
[1] = target: Plk1 (Homo sapiens (Human), UniProt P53350); test: Plk1 Cellular Assay - Mitotic Arrest Assay; format: cell-based; details: Hela cells, immunofluorescence microscopy, 24 hours post-treatment
Description: FIG. 2. […] Using immunofluorescence microscopy the cells were located by their DNA stain (Hoechst) and were then scored for phospho H3 positivity. Cells that are arrested in mitosis are phospho H3 positive.
Hela cells were plated at roughly 80% cell density on poly-lysine coated glass coverslips. After 24 hours the medium* was removed and fresh medium supplemented with test compounds was added. Twenty-four hours post-treatment the medium was removed, the coverslips were washed once with phosphate-buffered saline (PBS), pH 7.4 and the cells fixed for 10 minutes at room temperature using the following fixative solution: 100 mM K-Pipes, pH 6.8, 10 mM EGTA, 1 mM MgCl2, 0.2% Triton X-100, 3% formaldehyde. The coverslips were washed 3× with Tris-buffered saline solution (50 mM Tris-HCl pH 7.4, 150 mM NaCl) containing 0.1% Triton X-100 (TBST). The samples were blocked using 2% bovine serum albumin (BSA) in TBST. The samples were then incubated with a phosphorylation-specific antibody against histone 3 (phospho H3) serine-10 (Upstate, 1:500-1:1000) in blocking solution. Cells can also optionally be stained for tubulin as well using appropriate antibodies. After a 2-hr. incubation at room temperature (or 4° C. overnight), the samples were washed 3× with TBST. The samples were then incubated with an appropriate secondary antibody in blocking solution for 1-2 hrs at room temperature (or 4° C. overnight). […] The samples were washed 3× with TBST and mounted onto glass slides using Prolong Gold Antifade Reagent (Invitrogen). See FIGS. 2 and 3. *Hela/U2OS medium—Dulbecco's Modified Eagle's Medium (DMEM, Sigma), 10% fetal bovine serum, 1% penicillin/streptomycin

[2] = target: Mps1 (TTK) (Homo sapiens (Human), UniProt P33981); test: Mps1 (TTK) Cellular Assay - Mitotic Escape Assay; format: cell-based; details: Hela cells arrested with thymidine then nocodazole (0.33 μM); compound 0.25-10 uM for 2 hrs
Description: FIG. 1. […] Hela cells were arrested in mitosis using the following protocol. Cells were treated with thymidine (2.5 mM) for 24 hours. Cells were released into medium containing nocodazole (0.33 μM). After 16 hrs. cells were treated with I-10 a range of concentrations (0.25, 0.5, 1, 2, 5 and 10 uM) shown above for 2 hrs. Cells were harvested and the levels of cyclin B (a marker for mitosis) were determined by immunoblot. High cyclin B levels indicated mitotic cells, while low cyclin B levels indicate cells have exited nocodazole-induced mitotic arrest.
Hela (or U2OS cells) were plated at roughly 30-35% cell density. After 24 hours the medium* was removed and fresh medium supplemented with 2.5 mM thymidine was added to arrest cells at the G1/S transition. After 24 hours in thymidine block the medium was removed, the cells were washed 3× with PBS and replaced with medium supplemented with 330 nM nocodazole (Noc). The cells were incubated with nocodazole for 16-18 hours to produce a mitotic arrest. […] After 2 hours, the cells were harvested, lysed in RIPA buffer, and the levels of cyclin B or phosphorylated Histone 3 (Ser10) determined by western blotting. Alternatively, cells were treated on coverslips, fixed, and phosphorylated Histone 3 levels determined by immunofluorescence. […]

Chain of Plk1 (P53350 whole entry): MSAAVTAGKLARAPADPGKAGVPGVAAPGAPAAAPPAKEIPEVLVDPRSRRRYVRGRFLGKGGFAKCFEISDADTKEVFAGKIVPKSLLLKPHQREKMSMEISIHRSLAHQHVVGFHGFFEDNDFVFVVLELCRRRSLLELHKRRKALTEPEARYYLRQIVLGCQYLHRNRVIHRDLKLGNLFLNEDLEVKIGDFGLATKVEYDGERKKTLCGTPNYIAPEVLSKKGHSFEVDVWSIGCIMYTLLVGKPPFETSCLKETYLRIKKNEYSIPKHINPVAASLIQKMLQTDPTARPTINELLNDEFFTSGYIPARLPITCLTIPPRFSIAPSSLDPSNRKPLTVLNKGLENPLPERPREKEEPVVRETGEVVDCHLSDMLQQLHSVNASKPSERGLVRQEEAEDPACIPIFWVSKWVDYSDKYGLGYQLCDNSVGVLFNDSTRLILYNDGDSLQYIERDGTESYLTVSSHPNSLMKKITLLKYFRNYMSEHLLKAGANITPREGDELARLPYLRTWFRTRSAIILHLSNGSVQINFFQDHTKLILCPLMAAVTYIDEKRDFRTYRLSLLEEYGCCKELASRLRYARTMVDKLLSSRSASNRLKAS
Chain of Mps1 (TTK) (P33981 whole entry): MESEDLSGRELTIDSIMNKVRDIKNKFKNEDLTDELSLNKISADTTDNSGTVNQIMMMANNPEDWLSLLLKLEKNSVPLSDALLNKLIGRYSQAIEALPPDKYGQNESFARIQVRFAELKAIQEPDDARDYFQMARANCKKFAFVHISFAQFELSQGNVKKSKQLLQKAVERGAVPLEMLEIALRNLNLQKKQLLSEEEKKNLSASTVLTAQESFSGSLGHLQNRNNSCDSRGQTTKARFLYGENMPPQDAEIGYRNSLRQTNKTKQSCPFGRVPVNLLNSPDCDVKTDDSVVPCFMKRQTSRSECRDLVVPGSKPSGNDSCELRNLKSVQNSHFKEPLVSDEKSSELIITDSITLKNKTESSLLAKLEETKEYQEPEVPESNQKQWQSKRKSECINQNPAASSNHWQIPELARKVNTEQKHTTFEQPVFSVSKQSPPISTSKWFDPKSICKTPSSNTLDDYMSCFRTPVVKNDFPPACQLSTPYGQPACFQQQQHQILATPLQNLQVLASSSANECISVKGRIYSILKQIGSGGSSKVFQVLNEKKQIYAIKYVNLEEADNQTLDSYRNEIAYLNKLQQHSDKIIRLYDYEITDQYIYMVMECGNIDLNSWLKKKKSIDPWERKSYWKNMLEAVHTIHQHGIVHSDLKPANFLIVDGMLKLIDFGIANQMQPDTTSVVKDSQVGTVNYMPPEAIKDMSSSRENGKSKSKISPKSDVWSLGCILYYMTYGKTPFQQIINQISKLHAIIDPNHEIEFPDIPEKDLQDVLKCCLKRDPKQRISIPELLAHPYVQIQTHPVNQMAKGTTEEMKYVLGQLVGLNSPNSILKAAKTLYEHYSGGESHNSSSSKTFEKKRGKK

Structure (SMILES) | mitotic arrest (phospho H3 positivity) [1] | escape from mitosis (cyclin B levels by immunoblot) [2]
COc1cc(N(C)CCO)ccc1Nc1ncc2c(n1)N(C1CCCC1)CCC(=O)N2C [Compound I-7] | do not | –
COc1cc(C(=O)NC2CCN(C)CC2)ccc1Nc1ncc2c(n1)N(C1CCCC1)CC(C)C(=O)N2C (stereo not drawn) [Compound I-5] | induce a strong mitotic arrest | –
COc1cc(N(C)CCCO)ccc1Nc1ncc2c(n1)N(C1CCCC1)CCC(=O)N2C [Compound I-8] | do not | –
CCOc1cc(N2CCC(O)CC2)ccc1Nc1ncc2c(n1)N(C1CCCC1)CCC(=O)N2C [Compound I-10] | – | induces escape from mitosis
COc1cc(C(=O)NC2CCN(C)CC2)ccc1Nc1ncc2c(n1)N(C1CCCC1)C(C)CC(=O)N2C (stereo not drawn) [Compound I-4] | induce a strong mitotic arrest | –
COc1cc(N2CCC(O)CC2)ccc1Nc1ncc2c(n1)N(C1CCCC1)CCC(=O)N2C [Compound I-6] | do not | –
